# Reference: US12466843B2, “Gadolinium-based compound, method for producing same, and MRI contrast agent containing same” (KYUNGPOOK NATIONAL UNIVERSITY INDUSTRY-ACADEMIC COOPERATION …, priority 2019, dated 2025)
# Target: T1, VGLUT1 (Rattus norvegicus, UniProt Q62634)
# T1 construct: only the hippocampus and the cerebral cortex were selected and isolated; endogenous in cells; host or cells: primary neurons from hippocampus and cerebral cortex of Sprague Dawley rat fetuses
# T1 sequence (Q62634 1-560): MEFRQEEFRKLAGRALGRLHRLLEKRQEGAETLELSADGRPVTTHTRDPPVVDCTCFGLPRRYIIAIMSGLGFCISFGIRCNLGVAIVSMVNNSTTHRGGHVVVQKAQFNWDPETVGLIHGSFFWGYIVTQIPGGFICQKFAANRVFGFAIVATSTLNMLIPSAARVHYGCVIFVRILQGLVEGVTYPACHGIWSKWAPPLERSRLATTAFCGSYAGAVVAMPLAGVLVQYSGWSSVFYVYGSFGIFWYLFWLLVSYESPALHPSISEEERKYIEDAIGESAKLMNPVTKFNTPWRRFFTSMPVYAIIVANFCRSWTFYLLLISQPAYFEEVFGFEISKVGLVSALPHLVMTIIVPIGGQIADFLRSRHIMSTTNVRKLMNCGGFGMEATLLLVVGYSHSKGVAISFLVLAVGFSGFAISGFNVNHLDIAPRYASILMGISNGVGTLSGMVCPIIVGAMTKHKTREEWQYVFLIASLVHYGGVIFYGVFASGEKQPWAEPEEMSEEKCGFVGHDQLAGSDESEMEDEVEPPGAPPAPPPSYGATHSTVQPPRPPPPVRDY
# Assay: In vitro binding test via primary culture: MR phantom study
# Assay type: cell-based, Sprague Dawley rats
# Details: primary rat brain neurons, 0, 50, 100, 200, 400 μM, 24 hours, washed, 3T MRI; FIG. 6A/6B
# Protocol: 2) In Vitro Binding Test Via Primary Culture 2)-(1). Experimental Method {circumflex over (1)} Primary Culture of Rat Brain Neurons
# Sprague Dawley rats at […] of pregnancy were purchased from Daehan Biolink. After stabilizing the pregnant […], respiratory anesthesia was performed using isoflurane, and the fetus was separated from the mother. The fetal brain was separated therefrom, the membrane was removed therefrom, and only the hippocampus and the cerebral cortex were selected and isolated, cut into small pieces, put in HBSS buffer and washed 4 times (centrifugation 1000 rpm, 3 minutes). After the last washing, HBSS was removed, and HBSS buffer containing trypsin was added thereto (cell volume: trypsin HBSS=1:1) and reaction occurred in a constant temperature water bath (37° C.) for 5 minutes. HBSS buffer containing 10% FBS was added thereto ((cell volume+trypsin HBSS): 10% FBS HBSS=1:1) to stop the enzyme reaction of trypsin, and the resulting product passed through 4 layers of lens paper and thus was formed into single cells. The cells were washed 4 times via centrifugation with HBSS buffer, and only the cells separated into the single cells were obtained. […]
# The obtained cells were suspended in neurobasal media containing 1×N2 supplement, 1×B27, 4 mM L-glutamine, and 1% antibiotics at 7×10^6 cells per E-tube. […] MRI intensity was analyzed using ImageJ program.
smiles,measurement,value
O=C([O-])CN1CCN(CC(=O)[O-])CCN([C@H](CO)[C@H](O)CO)CCN(CC(=O)[O-])CC1.[Gd+3] (racemic) [Gadovist],phantom signal intensity (brightness) based on Gd concentration,little difference in brightness based on the Gd concentration
